Experimental data from patent US20140135310A1, “SULPHONAMIDE DERIVATIVES OF ALICYCLIC AMINES FOR THE TREATMENT OF CENTRAL NERVOUS SYSTEM DISEASES” (Adamed Sp. z o.o., priority 2011, published 2014).

Columns and labels:
[1] = target: D2 dopaminergic receptors (Homo sapiens, UniProt P14416); experiment: Cellular functional assay, D2 dopaminergic receptors; format: cell-based; settings: for D2 ag [%]: agonism, percent of control specific agonist response (3 μM dopamine for control); for D2 ag [%] / D2 antag [%]: D2S (h), HEK-293 cells; for D2 antag [%]: antagonism, stimulus dopamine (30 nM)
Experimental: (§1) The results are expressed as a percent of control specific agonist response ((measured specific response/control specific agonist response)×100) obtained in the presence of the test compounds.
(§2) The EC50 values (concentration producing a half-maximal specific response) and IC50 values (concentration causing a half-maximal inhibition of the control specific agonist response) were determined by non-linear regression analysis of the concentration-response curves generated with mean replicate values using Hill equation curve fitting (Y=D+[(A−D)/(1+(C/C50)nH)], where Y=specific response, D=minimum specific response, A=maximum specific response, C=compound concentration, and C50=EC50 or IC50, and nH=slope factor). This analysis was performed using a software developed at Cerep (Hill software) and validated by comparison with data generated by the commercial software SigmaPlot® 4.0 for Windows® (© 1997 by SPSS Inc.).
(§3) For the antagonists, the apparent dissociation constants (Kb) were calculated using the modified Cheng Prusoff equation (Kb=IC50/(1+(A/EC50A)), where A=concentration of reference agonist in the assay, and EC50A=EC50 value of the reference agonist).

[2] = target: D3 dopaminergic receptors (Homo sapiens, UniProt P35462); experiment: Cellular functional assay, D3 dopaminergic receptors; format: cell-based; settings: for D3 ag [%]: agonism, percent of control specific agonist response (0.3 μM dopamine for control); for D3 ag [%] / D3 antag [%]: D3 (h), CHO cells; for D3 antag [%]: antagonism, stimulus dopamine (10 nM)
Experimental: as §1, §2, §3

Chain of D2 dopaminergic receptors (P14416 whole entry): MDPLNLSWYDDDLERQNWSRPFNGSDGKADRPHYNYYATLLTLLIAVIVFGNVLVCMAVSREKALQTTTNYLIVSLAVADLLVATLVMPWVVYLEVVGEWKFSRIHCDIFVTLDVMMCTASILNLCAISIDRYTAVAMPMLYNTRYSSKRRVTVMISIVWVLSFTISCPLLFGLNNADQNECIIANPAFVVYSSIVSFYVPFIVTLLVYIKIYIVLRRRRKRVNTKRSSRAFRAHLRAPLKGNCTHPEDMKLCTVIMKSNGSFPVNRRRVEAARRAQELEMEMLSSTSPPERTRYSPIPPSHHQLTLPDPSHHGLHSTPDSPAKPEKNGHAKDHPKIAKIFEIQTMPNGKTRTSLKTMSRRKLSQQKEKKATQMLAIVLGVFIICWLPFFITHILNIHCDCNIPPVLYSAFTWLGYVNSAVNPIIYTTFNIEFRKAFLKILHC
Chain of D3 dopaminergic receptors (P35462 whole entry): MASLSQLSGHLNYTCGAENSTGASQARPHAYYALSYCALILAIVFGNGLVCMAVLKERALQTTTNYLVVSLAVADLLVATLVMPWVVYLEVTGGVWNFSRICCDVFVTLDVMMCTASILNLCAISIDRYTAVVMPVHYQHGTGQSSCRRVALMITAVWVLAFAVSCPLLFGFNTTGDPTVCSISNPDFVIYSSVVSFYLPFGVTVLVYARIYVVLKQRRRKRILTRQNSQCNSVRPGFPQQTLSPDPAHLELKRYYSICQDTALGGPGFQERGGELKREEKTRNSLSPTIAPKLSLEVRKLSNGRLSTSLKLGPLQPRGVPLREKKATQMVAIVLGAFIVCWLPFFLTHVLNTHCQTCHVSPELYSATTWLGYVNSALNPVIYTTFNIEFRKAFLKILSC

| Molecule | D2 ag [%] [1] | D2 antag [%] [1] | D3 ag [%] [2] | D3 antag [%] [2] | Kb ([1]; apparent dissociation constant, modified Cheng Prusoff equation, read-out: D2 antag Kb) | Kb ([2]; apparent dissociation constant, modified Cheng Prusoff equation, read-out: D3 antag Kb) |
| --- | --- | --- | --- | --- | --- | --- |
| O=S(=O)(NC1CCN(CCCc2noc3cc(F)ccc23)C1)c1ccc2cc(Cl)ccc2c1 (centres unmarked) [Compound 23, 6-Chloro-N-[1-[3-(6-fluoro-1,2-benzoxazol-3-yl)propyl]pyrrolidin-3-yl]naphthalene-2-sulphonamide] | 1% | 87% | −10% | 68% |  |  |
| Cc1c(S(=O)(=O)NC2CCN(CCCc3noc4cc(F)ccc34)C2)sc2ccc(F)cc12 (centres unmarked) [Compound 28, 5-Fluoro-N-[1-[3-(6-fluoro-1,2-benzoxazol-3-yl)propyl]pyrrolidin-3-yl]-3-methyl-benzothiophene-2-sulphonamide] | 1% | 87% | −8% | 74% |  |  |
| O=S(=O)(N[C@@H]1CCN(CCCc2noc3cc(F)ccc23)C1)c1cc2ccccc2s1 [Compound 196, N-[(3R)-1-[3-(6-Fluoro-1,2-benzoxazol-3-yl)propyl]pyrrolidin-3-yl]benzo-thiophene-2-sulphonamide] | 0% | 95% | −16% | 77% | 10 nM | 71 nM |
| O=S(=O)(N[C@H]1CCN(CCCc2noc3cc(F)ccc23)C1)c1cc2ccccc2s1 [Compound 197, N-[(3S)-1-[3-(6-Fluoro-1,2-benzoxazol-3-yl)propyl]pyrrolidin-3-yl]benzo-thiophene-2-sulphonamide] | 1% | 82% |  |  |  |  |
| O=S(=O)(N[C@@H]1CCN(CCCc2noc3cc(F)ccc23)C1)c1cc2ccc(Cl)cc2s1 [Compound 198, 6-Chloro-N-[(3R)-1-[3-(6-fluoro-1,2-benzoxazol-3-yl)propyl]pyrrolidin-3-yl]benzothiophene-2-sulphonamide] | 4% | 83% | −17% | 97% |  |  |
| O=S(=O)(N[C@H]1CCN(CCCc2noc3cc(F)ccc23)C1)c1cc2ccc(Cl)cc2s1 [Compound 199, 6-Chloro-N-[(3S)-1-[3-(6-fluoro-1,2-benzoxazol-3-yl)propyl]pyrrolidin-3-yl]benzothiophene-2-sulphonamide] | 4% | 46% |  |  |  |  |
| O=S(=O)(N[C@@H]1CCN(CCCc2noc3cc(F)ccc23)C1)c1ccc2cc(Cl)ccc2c1 [Compound 200, 6-Chloro-N-[(3R)-1-[3-(6-fluoro-1,2-benzoxazol-3-yl)propyl]pyrrolidin-3-yl]naphthalene-2-sulphonamide] | 0% | 96% | −1% | 93% |  |  |
| Cc1c(S(=O)(=O)N[C@@H]2CCN(CCCc3noc4cc(F)ccc34)C2)sc2ccc(F)cc12 [Compound 202, 5-Fluoro-N-[(3R)-1-[3-(6-fluoro-1,2-benzoxazol-3-yl)propyl]pyrrolidin-3-yl]-3-methyl-benzothiophene-2-sulphonamide] | 0% | 95% | −5% | 81% |  |  |
| Cc1c(S(=O)(=O)N[C@@H]2CCN(CCCc3noc4cc(F)ccc34)C2)sc2ccc(Cl)cc12 [Compound 204, 5-Chloro-N-[(3R)-1-[3-(6-fluoro-1,2-benzoxazol-3-yl)propyl]pyrrolidin-3-yl]-3-methyl-benzothiophene-2-sulphonamide] | 1% | 86% | −8% | 109% |  |  |
| Cc1c(S(=O)(=O)N[C@H]2CCN(CCCc3noc4cc(F)ccc34)C2)sc2ccc(Cl)cc12 [Compound 205, 5-Chloro-N-[(3S)-1-[3-(6-fluoro-1,2-benzoxazol-3-yl)propyl]pyrrolidin-3-yl]-3-methyl-benzothiophene-2-sulphonamide] | 3% | 61% | 7% | 95% |  |  |
| O=S(=O)(N[C@@H]1CCN(CCCc2noc3cc(F)ccc23)C1)c1ccc2ccccc2c1 [Compound 206, N-[(3R)-1-[3-(6-Fluoro-1,2-benzoxazol-3-yl)propyl]pyrrolidin-3-yl]naphthalene-2-sulphonamide] | 1% | 96% | 3% | 77% |  |  |
| O=S(=O)(N[C@@H]1CCN(CCCc2noc3cc(F)ccc23)C1)c1cc2ccccc2o1 [Compound 214, N-[(3R)-1-[3-(6-Fluoro-1,2-benzoxazol-3-yl)propyl]pyrrolidin-3-yl]benzo-furan-2-sulphonamide] | 3% | 89% |  | 117% |  |  |
| O=S(=O)(N[C@H]1CCN(CCCc2noc3cc(F)ccc23)C1)c1cc2ccccc2o1 [Compound 215, N-[(3S)-1-[3-(6-Fluoro-1,2-benzoxazol-3-yl)propyl]pyrrolidin-3-yl]benzo-furan-2-sulphonamide] | 6% | 91% |  |  |  |  |
| O=S(=O)(NC1CCN(CCCc2noc3cc(F)ccc23)C1)c1cc2ccccc2o1 (centres unmarked) [Compound 216, N-[1-[3-(6-Fluoro-1,2-benzoxazol-3-yl)propyl]pyrrolidin-3-yl]benzofuran-2-sulphonamide] | 0% | 86% |  |  |  |  |
| Cc1ccc2sc(S(=O)(=O)NC3CCN(CCCc4noc5cc(F)ccc45)C3)cc2c1 (centres unmarked) [Compound 226, N-[1-[3-(6-Fluoro-1,2-benzoxazol-3-yl)propyl]pyrrolidin-3-yl]-5-methylbenzothiophene-2-sulphonamide] | 0% | 87% | −26% | 107% |  |  |
| O=S(=O)(NCC1CCN(CCCc2noc3cc(F)ccc23)C1)c1cccc2ccccc12 (centres unmarked) [Compound 239, N-[[1-[3-(6-Fluoro-1,2-benzoxazol-3-yl)propyl]pyrrolidin-3-yl]methyl]naphthalene-1-sulphonamide] | 2% | 56% |  |  |  |  |
| O=S(=O)(NCC1CCN(CCCc2noc3cc(F)ccc23)C1)c1ccc2ccccc2c1 (centres unmarked) [Compound 240, N-[[1-[3-(6-Fluoro-1,2-benzoxazol-3-yl)propyl]pyrrolidin-3-yl]methyl]-naphthalene-2-sulphonamide] | 3% | 64% |  |  |  |  |
| N-[1-[3-(6-Fluoro-1,2-benzoxazol-3-yl)propyl]pyrrolidin-3-yl]-1-methyl-imidazole-4-sulphonamide [Compound 217] | 10% | 79% |  |  |  |  |
